Results as given in patent EP0270316A2, “Topical compositions comprising 1-substituted imidazoles and NSAIDs for treatment of acne” (PFIZER INC., priority 1986, dated 1988).
Values after ≈ are worked out from the molar mass of the structure shown.

Columns and labels:
[1] = human skin treated with radiolabeled tioconazole; frozen section autoradiography
Excerpt: This property is readily measurable by methods known to those skilled in the art such as, for example, skin layer analysis which measures the amount of radiolabeled drug, e.g. tioconazole, in human skin treated with compositions containing the drug. [[…] et al., Brit. J. Dermatol. 115, Suppl. 31, 36-40 (1986)].

P. acnes = experiment: microbe, parasite or virus in culture; details: Cutibacterium acnes, read-out: average minimum inhibitory concentration (MIC)

## Clc1ccc(C(Cn2ccnc2)OCc2ccsc2Cl)c(Cl)c1 (centres unmarked) [Tioconazole, 1-[2-[(2-chloro-3-thienyl)methoxy]-2-(2,4-dichlorophenyl)ethyl]-1H-imidazole]
[1]
  localization in skin: localized in the sebaceous follicle
P. acnes
  MIC: 5 µg/mL (≈ 12.9 µM)
